Calls of active or inactive are those of the source. The calls are words filed in the database; no cut-off is given here.
Experiments:
[1] = molecular target: T1, Potassium voltage-gated channel subfamily B member 1 (Homo sapiens, UniProt Q14721); assay: (§1) Inhibition of Kv2.1 channel in […] INS1 cells assessed as inhibition of outward K+ current by electrophysiology/patch clamp technique; format: cell-based
T1 sequence (Q14721 whole entry): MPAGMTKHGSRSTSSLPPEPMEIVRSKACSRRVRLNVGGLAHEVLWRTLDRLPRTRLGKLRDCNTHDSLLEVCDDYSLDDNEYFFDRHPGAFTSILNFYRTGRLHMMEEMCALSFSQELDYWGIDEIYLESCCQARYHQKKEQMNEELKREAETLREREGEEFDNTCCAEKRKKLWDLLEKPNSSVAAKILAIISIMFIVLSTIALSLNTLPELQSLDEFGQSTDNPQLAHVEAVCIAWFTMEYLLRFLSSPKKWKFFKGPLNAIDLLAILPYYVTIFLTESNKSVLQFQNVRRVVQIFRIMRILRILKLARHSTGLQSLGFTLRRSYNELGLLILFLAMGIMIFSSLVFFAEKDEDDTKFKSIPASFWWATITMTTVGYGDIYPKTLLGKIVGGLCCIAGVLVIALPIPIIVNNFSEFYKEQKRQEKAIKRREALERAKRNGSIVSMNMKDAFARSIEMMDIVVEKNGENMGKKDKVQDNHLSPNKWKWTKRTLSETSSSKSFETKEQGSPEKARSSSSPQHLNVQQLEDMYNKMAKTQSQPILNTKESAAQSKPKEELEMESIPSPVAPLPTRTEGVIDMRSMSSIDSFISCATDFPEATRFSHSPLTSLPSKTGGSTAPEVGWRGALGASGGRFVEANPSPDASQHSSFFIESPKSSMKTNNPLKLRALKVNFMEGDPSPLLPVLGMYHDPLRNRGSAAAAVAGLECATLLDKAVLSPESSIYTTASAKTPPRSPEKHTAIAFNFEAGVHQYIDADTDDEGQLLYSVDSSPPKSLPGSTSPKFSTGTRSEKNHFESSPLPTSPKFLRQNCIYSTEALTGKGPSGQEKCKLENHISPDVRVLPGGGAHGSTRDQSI

[2] = molecular target: T2, Potassium voltage-gated channel subfamily B member 1 (Homo sapiens) (UniProt Q14721); assay: as §1; format: cell-based
T2 sequence (whole entry): T1 sequence (Q14721 whole entry)

| IC50 [1] [nM] | inhibition [2] | Compound |
| --- | --- | --- |
| 590 | – | COc1cccc(OC)c1C(=O)c1c(O)cc(C)c(OC)c1C1=C(c2c(OC)cccc2OC)c2c(O)cc(C)c(OC)c2C1=O |
| – | inactive | COc1cccc(OC)c1C(=O)c1c(O)cc(C)c(OC)c1COC(C)=O |
| 1000 | – | COc1cccc(OC)c1C(=O)c1c(O)cc(C)c(OC)c1CC(=O)c1c(OC)c(C)cc(O)c1C(=O)c1c(OC)cccc1OC |

— ChEMBL document CHEMBL3576828, “Acredinones A and B, voltage-dependent potassium channel inhibitors from the sponge-derived fungus Acremonium sp. F9A015” (J Nat Prod, 2015)
